The structures appear in SMILES notation.

T1 sequence (P05771 1-673 isoform P05771-2): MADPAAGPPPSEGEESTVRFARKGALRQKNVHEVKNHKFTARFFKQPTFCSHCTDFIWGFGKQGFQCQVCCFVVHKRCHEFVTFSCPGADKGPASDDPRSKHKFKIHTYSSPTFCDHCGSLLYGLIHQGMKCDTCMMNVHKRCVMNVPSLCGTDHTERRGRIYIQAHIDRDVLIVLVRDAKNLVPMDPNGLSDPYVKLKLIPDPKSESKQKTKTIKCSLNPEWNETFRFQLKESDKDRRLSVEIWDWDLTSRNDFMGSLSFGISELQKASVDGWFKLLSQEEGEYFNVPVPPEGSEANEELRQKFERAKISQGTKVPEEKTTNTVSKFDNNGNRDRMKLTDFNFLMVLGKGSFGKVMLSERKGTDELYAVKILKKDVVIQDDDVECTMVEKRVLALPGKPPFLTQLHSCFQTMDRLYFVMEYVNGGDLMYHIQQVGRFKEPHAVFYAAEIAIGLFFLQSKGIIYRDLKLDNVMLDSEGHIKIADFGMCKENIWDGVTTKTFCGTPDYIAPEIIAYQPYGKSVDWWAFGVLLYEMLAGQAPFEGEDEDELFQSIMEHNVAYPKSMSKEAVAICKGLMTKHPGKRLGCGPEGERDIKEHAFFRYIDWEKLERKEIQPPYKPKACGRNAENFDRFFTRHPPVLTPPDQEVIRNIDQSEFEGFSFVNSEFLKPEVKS

The assay has as its target T1, human full-length recombinant PKC βII (Homo sapiens, UniProt P05771).
T1 construct: Active human full-length recombinant PKC βII; purchased Invitrogen GmbH, Darmstadt, Germany
The assay can be described thus: Determination of PKC βII inhibition (Caliper mobility-shift kinase assay, Fluorescein-RFARKGSLRQKNV peptide substrate). The note with it: example compounds at a final concentration of 1.14 μM (±0.15 μM). The class given is biochemical. The method, boiled down:
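Full-length PKC βII (30 ng/ml in pre-dilution) with PS/DAG/Ca2+ activators, pH 7.4; fluorescein peptide and ATP at 3 μM and 120 μM before mixing. Reaction ran 60 min at 32 °C, was EDTA-stopped, and was read by mobility shift. % inhibition came from product/(substrate+product) peak heights, tested at 1.14 μM final.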
In general, inhibition refers to the relative decrease from the control value, in per cent. Consider `Cc1n[nH]c2nc(-c3ccc(O)cc3)cc(C(=O)N3CCNCC3c3ccccc3C(F)(F)F)c12` (stereo not shown) [Example 93, [6-(4-Hydroxy-phenyl)-3-methyl-1H-pyrazolo[3,4-b]pyridin-4-yl]-[2-(2-trifluoromethyl-phenyl)-piperazin-1-yl]-methanone], for which the inhibition at 1.14 µM was 79%.
The same measure for `Cc1n[nH]c2nc(-c3ccc(O)c(F)c3)cc(C(=O)NCC(C)(C)N3CCN(C)CC3)c12` [Example 362, 6-(3-Fluoro-4-hydroxy-phenyl)-3-methyl-1H-pyrazolo[3,4-b]pyridine-4-carboxylic acid [2-methyl-2-(4-methyl-piperazin-1-yl)-propyl]-amide]: 80%; for `Cc1n[nH]c2nc(-c3ccc(O)c(F)c3)cc(C(=O)N3CCCC4(CCNC4)C3)c12` (stereo not shown) [Example 346, (2,7-Diaza-spiro[4.5]dec-7-yl)-[6-(3-fluoro-4-hydroxy-phenyl)-3-methyl-1H-pyrazolo[3,4-b]pyridin-4-yl]-methanone]: 59%.
The same measure for `Cc1n[nH]c2nc(-c3ccc(O)cc3)cc(C(=O)NC3(C)CCNCC3)c12` [Example 41, 6-(4-Hydroxy-phenyl)-3-methyl-1H-pyrazolo[3,4-b]pyridine-4-carboxylic acid (4-methyl-piperidin-4-yl)-amide]: 95%; for `Cc1n[nH]c2nc(-c3ccc(O)cc3)cc(C(=O)N3CC(=O)N4CCCCC4C3)c12` (stereo not shown) [Example 266, 2-[6-(4-Hydroxy-phenyl)-3-methyl-1H-pyrazolo[3,4-b]pyridine-4-carbonyl]-octahydro-pyrido[1,2-a]pyrazin-4-one]: 39%.
The same measure for `COc1cccc(C2CNCCN2C(=O)c2cc(-c3ccc(O)cc3C)nc3[nH]nc(C)c23)c1` (stereo not shown) [Example 146, [6-(4-Hydroxy-2-methyl-phenyl)-3-methyl-1H-pyrazolo[3,4-b]pyridin-4-yl]-[2-(3-methoxy-phenyl)-piperazin-1-yl]-methanone]: 97%.
Consider `Cc1n[nH]c2nc(-c3ccc(O)cc3)cc(C(=O)N3CC4CCCN4CC3c3ccccc3)c12` (stereo not shown) [Example 282, [6-(4-Hydroxy-phenyl)-3-methyl-1H-pyrazolo[3,4-b]pyridin-4-yl]-(3-phenyl-hexahydro-pyrrolo[1,2-a]pyrazin-2-yl)-methanone], for which the inhibition at 1.14 µM stood at 73%.
With `Cc1n[nH]c2nc(-c3ccc(O)c(F)c3)cc(C(=O)N3CCNC[C@@H]3C(C)C)c12` [Example 320, [6-(3-Fluoro-4-hydroxy-phenyl)-3-methyl-1H-pyrazolo[3,4-b]pyridin-4-yl]-((S)-2-isopropyl-piperazin-1-yl)-methanone], the inhibition at 1.14 µM was determined as 72%.
As for `Cc1n[nH]c2nc(-c3ccc(O)cc3)cc(C(=O)NC(CN)c3ccc(F)cc3)c12` (stereo not shown) [Example 107, 6-(4-Hydroxy-phenyl)-3-methyl-1H-pyrazolo[3,4-b]pyridine-4-carboxylic acid [2-amino-1-(4-fluoro-phenyl)-ethyl]-amide], the figure is 83%; as for `Cc1n[nH]c2nc(-c3ccc(O)cc3)cc(C(=O)NCC(C)(C)N)c12` [Example 133, 6-(4-Hydroxy-phenyl)-3-methyl-1H-pyrazolo[3,4-b]pyridine-4-carboxylic acid (2-amino-2-methyl-propyl)-amide], 89%; as for `CNC1CCN(C(=O)c2cc(-c3ccc(O)cc3)nc3[nH]nc(C)c23)C1` (stereo not shown) [Example 240, [6-(4-Hydroxy-phenyl)-3-methyl-1H-pyrazolo[3,4-b]pyridin-4-yl]-(3-methylamino-pyrrolidin-1-yl)-methanone], 94%.
The same measure for `CCc1n[nH]c2nc(-c3ccc(O)c(F)c3)cc(C(=O)N3CCNCC3)c12` [Example 2, [3-Ethyl-6-(3-fluoro-4-hydroxy-phenyl)-1H-pyrazolo[3,4-b]pyridin-4-yl]-piperazin-1-yl-methanone]: 69%.
As for `Cc1n[nH]c2nc(-c3ccc(O)cc3)cc(C(=O)N3CCNC(c4ccccc4)C3)c12` (stereo not shown) [Example 25, [6-(4-Hydroxy-phenyl)-3-methyl-1H-pyrazolo[3,4-b]pyridin-4-yl]-(3-phenyl-piperazin-1-yl)-methanone], the figure is 89%.
In the case of `CC[C@H]1CN(C(=O)c2cc(-c3ccc(O)cc3)nc3[nH]nc(C)c23)CCN1` [Example 210, ((S)-3-Ethyl-piperazin-1-yl)-[6-(4-hydroxy-phenyl)-3-methyl-1H-pyrazolo[3,4-b]pyridin-4-yl]-methanone], the inhibition at 1.14 µM was 100%.
Consider `Cc1n[nH]c2nc(-c3ccc(O)cc3)cc(C(=O)N3CCC4(CNCCO4)C3)c12` (stereo not shown) [Example 253, [6-(4-Hydroxy-phenyl)-3-methyl-1H-pyrazolo[3,4-b]pyridin-4-yl]-(6-oxa-2,9-diaza-spiro[4.5]dec-2-yl)-methanone], for which the inhibition at 1.14 µM is 73%.
As for `Cc1n[nH]c2nc(-c3ccc(O)c(F)c3)cc(C(=O)N3CCNC(C)C3)c12` (stereo not shown) [Example 303, [6-(3-Fluoro-4-hydroxy-phenyl)-3-methyl-1H-pyrazolo[3,4-b]pyridin-4-yl]-(3-methyl-piperazin-1-yl)-methanone], the figure is 93%; as for `Cc1n[nH]c2nc(-c3ccc(O)cc3)cc(C(=O)NC3CN4CCC3CC4)c12` (stereo not shown) [Example 207, 6-(4-Hydroxy-phenyl)-3-methyl-1H-pyrazolo[3,4-b]pyridine-4-carboxylic acid (1-aza-bicyclo[2.2.2]oct-3-yl)-amide], 94%; as for `Cc1n[nH]c2nc(-c3ccc(O)cc3)cc(C(=O)N3CCNC[C@H]3C(=O)NC(C)(C)C)c12` [Example 232, (S)-1-[6-(4-Hydroxy-phenyl)-3-methyl-1H-pyrazolo[3,4-b]pyridine-4-carbonyl]-piperazine-2-carboxylic acid tert-butylamide], 95%.
For `COc1cc(O)ccc1-c1cc(C(=O)N2CCNCC2)c2c(C)n[nH]c2n1` [Example 14, [6-(4-Hydroxy-2-methoxy-phenyl)-3-methyl-1H-pyrazolo[3,4-b]pyridin-4-yl]-piperazin-1-yl-methanone], the inhibition at 1.14 µM was found to be 94%.
As for `CCc1n[nH]c2nc(-c3ccc(O)cc3)cc(C(=O)N3CCCN(CC)CC3)c12` [Example 187, (4-Ethyl-[1,4]diazepan-1-yl)-[3-ethyl-6-(4-hydroxy-phenyl)-1H-pyrazolo[3,4-b]pyridin-4-yl]-methanone], the figure is 58%.
The same measure for `Cc1n[nH]c2nc(-c3ccc(O)cc3F)cc(C(=O)NC(C)(C)CCN)c12` [Example 66, 6-(2-Fluoro-4-hydroxy-phenyl)-3-methyl-1H-pyrazolo[3,4-b]pyridine-4-carboxylic acid (3-amino-1,1-dimethyl-propyl)-amide]: 93%; for `Cc1n[nH]c2nc(-c3ccc(O)c(F)c3)cc(C(=O)N3CC[C@@H](C4(N)CC4)C3)c12` [Example 322, [(R)-3-(1-Amino-cyclopropyl)-pyrrolidin-1-yl]-[6-(3-fluoro-4-hydroxy-phenyl)-3-methyl-1H-pyrazolo[3,4-b]pyridin-4-yl]-methanone]: 68%.
Take `CCC1(NC(=O)c2cc(-c3ccc(O)cc3F)nc3[nH]nc(C)c23)CCCNC1` (stereo not shown) [Example 62, 6-(2-Fluoro-4-hydroxy-phenyl)-3-methyl-1H-pyrazolo[3,4-b]pyridine-4-carboxylic acid (3-ethyl-piperidin-3-yl)-amide]: the inhibition at 1.14 µM was 100%.
On to `Cc1n[nH]c2nc(-c3ccc(O)cc3)cc(C(=O)N[C@H]3[C@@H]4CNC[C@@H]43)c12` [Example 214, 6-(4-Hydroxy-phenyl)-3-methyl-1H-pyrazolo[3,4-b]pyridine-4-carboxylic acid (3-azabicyclo[3.1.0]hex-6-yl)-amide], for which the inhibition at 1.14 µM worked out at 73%.
As for `Cc1n[nH]c2nc(-c3ccc(O)cc3)cc(C(=O)N3CCNCC3(C)C)c12` [Example 199, (2,2-Dimethyl-piperazin-1-yl)-[6-(4-hydroxy-phenyl)-3-methyl-1H-pyrazolo[3,4-b]pyridin-4-yl]-methanone], the figure is 99%; as for `Cc1n[nH]c2nc(-c3ccc(O)cc3)cc(C(=O)NCCC(C)(C)N)c12` [Example 129, 6-(4-Hydroxy-phenyl)-3-methyl-1H-pyrazolo[3,4-b]pyridine-4-carboxylic acid (3-amino-3-methyl-butyl)-amide], 69%; as for `Cc1n[nH]c2nc(-c3ccc(O)c(F)c3)cc(C(=O)N3CCOC4(CCNCC4)C3)c12` [Example 344, [6-(3-Fluoro-4-hydroxy-phenyl)-3-methyl-1H-pyrazolo[3,4-b]pyridin-4-yl]-(1-oxa-4,9-diaza-spiro[5.5]undec-4-yl)-methanone], 64%.
Turning to `Cc1n[nH]c2nc(-c3ccc(O)c(F)c3)cc(C(=O)NC3CCCNC3)c12` (stereo not shown) [Example 349, 6-(3-Fluoro-4-hydroxy-phenyl)-3-methyl-1H-pyrazolo[3,4-b]pyridine-4-carboxylic acid piperidin-3-ylamide], the inhibition at 1.14 µM was found to be 81%.
As for `Cc1n[nH]c2nc(-c3ccc(O)cc3)cc(C(=O)N3CCNC(C)C3C)c12` (stereo not shown) [Example 194, (2,3-Dimethyl-piperazin-1-yl)-[6-(4-hydroxy-phenyl)-3-methyl-1H-pyrazolo[3,4-b]pyridin-4-yl]-methanone], the figure is 99%; as for `Cc1n[nH]c2nc(-c3ccc(O)cc3F)cc(C(=O)N3CCNCC3C(F)(F)F)c12` (stereo not shown) [Example 60, [6-(2-Fluoro-4-hydroxy-phenyl)-3-methyl-1H-pyrazolo[3,4-b]pyridin-4-yl]-(2-trifluoromethyl-piperazin-1-yl)-methanone], 98%.
The same measure for `Cc1n[nH]c2nc(-c3ccc(O)cc3)cc(C(=O)NCC3CCCCN3)c12` (stereo not shown) [Example 245, 6-(4-Hydroxy-phenyl)-3-methyl-1H-pyrazolo[3,4-b]pyridine-4-carboxylic acid (piperidin-2-ylmethyl)-amide]: 83%.

The record behind these values is patent publication US8686150B2 (Sanofi, priority 2011, dated 2014).
